Reference: US20080280891A1, “Anti-cancer agents and uses thereof” (Locus Pharmaceuticals, Inc., priority 2006, published 2008)

Columns and labels:
Type in all cases: cell-based
[1] = system: MCF-7 breast cancer cells; test: Cell cycle assay (Example 163), G2/M block in MCF-7 cells; details: Homo sapiens, MCF7, 24 h, flow cytometry (PI), Table 2
Description: (§1) MCF-7 breast cancer cells and Jurkat T-cell leukemic cells were grown (and maintained) in EMEM and RPMI media, respectively, containing 10% fetal calf serum.
(§2) Cells were allowed to adhere for 24 hrs. After adherence, cell culture media was changed to that containing 0.5% FCS. Thirty minutes post-media change, test compounds were added at a concentration of 1 μM. Twenty-fours after test agent addition, cells were analyzed for cell cycle status as described below.
(§3) Cell cycle status was analyzed by flow cytometry. Briefly, cells were collected and washed with FACs buffer (Pharmingen) and resuspended and fixed in 1 mL of 80% ethanol for 1 hr. Cells were washed with FACs buffer and resuspended in propidium iodide(PI)/RNase staining buffer (Pharmingen). PI is a fluorescent dye that labels nucleic acids such as DNA. The fluorescence within a cell (in the presence of PI) is proportional to the amount of DNA within a cell. The cell content of DNA is an indices of status in the cell cycle. […] Cells in the S phase have DNA content that lies between these extremes.
(§4) For testing of cell cycle effects of test agents the percentage of cells within the G1 and G2/M phase were measured.

[2] = system: Jurkat T-cell leukemic cells; test: Cell cycle assay (Example 163), G2/M block in Jurkat cells; details: Homo sapiens, Jurkat, 24 h, flow cytometry (PI), Table 2
Description: as §1
Test agents were added a concentration of 0.1 μM. Twenty-fours after test agent addition, cells were analyzed for cell cycle status as described below.
as §3, §4

[3] = system: NCI-H522 non small cell lung cancer cells; test: Cell cycle assay (Example 164), G2/M block in NCI-H522 cells; details: Homo sapiens; for activation at 0.1 µM: 24 h, flow cytometry (PI), Table 4
Description: (§5) The adherent MCF-7 breast cancer cells and NCI-H522 non small cell lung cancer cells were grown and maintained in EMEM cell culture media containing 10% fetal calf serum.
as §2, with “either 1.0 or 0.1 μM (as specified in the Tables). Twenty-four hours” for “1 μM. Twenty-fours”
as §3, with “indicator” for “indices”
as §4

[4] = system: MCF-7 breast cancer cells; test: Cell cycle assay (Example 164), G2/M block in MCF-7 cells; details: Homo sapiens, MCF7; 0.1 μM, 24 h, flow cytometry (PI), Table 4
Description: as §5
as §2, with “either 1.0 or 0.1 μM (as specified in the Tables). Twenty-four hours” for “1 μM. Twenty-fours”
as §3, with “indicator” for “indices”
as §4

Row | Compound | activation at 1 µM [1] [%] | activation at 0.1 µM [2] [%] | activation at 0.1 µM [3] [%] | activation at 0.1 µM [4] [%] | IC50 ([3]; H522, footnotes * and ** of Table 4, read-out: IC50 (footnote mark in H522 G2/M Block)) [nM]
1 | CC(=O)Nc1cc(-c2nc3ncccc3o2)cc(-c2cccc3[nH]ccc23)c1 [N-[3-(1H-Indol-4-yl)-5-oxazolo[4,5-b]pyridin-2-yl-phenyl]-acetamide] | ≥ 50 | < 50 | – | – | –
2 | COc1cc(C(=O)c2cc(NC(C)=O)cc(-c3cccc4[nH]ccc34)c2)ccn1 [N-[3-(1H-Indol-4-yl)-5-(2-methoxy-pyridine-4-carbonyl)-phenyl]-acetamide] | ≥ 50 | ≥ 50 | – | – | –
3 | CS(=O)(=O)Nc1cc(-c2nc3ccccc3o2)cc(-c2cccc3[nH]ccc23)c1 [N-[3-Benzoxazol-2-yl-5-(1H-indol-4-yl)-phenyl]-methanesulfonamide] | – | – | ≥ 50 | ≥ 50 | –
4 | CS(=O)(=O)Nc1cc(-c2ccc(F)cc2F)cc(-c2cccc3[nH]ccc23)c1 [N-[5-(1H-Indol-4-yl)-2′,4′-difluoro-biphenyl-3-yl]-methanesulfonamide] | – | – | ≥ 50 | < 50 | –
5 | N#Cc1ccc(Nc2cc(O)cc(-c3cccc4[nH]ccc34)c2)cn1 [5-[3-Hydroxy-5-(1H-indol-4-yl)-phenylamino]-pyridine-2-carbonitrile] | ≥ 50 | ≥ 50 | – | – | –
6 | O=C(c1cccnc1)c1cc(-c2cccc3[nH]ccc23)ccc1O [[2-Hydroxy-5-(1H-indol-4-yl)-phenyl]-pyridin-3-yl-methanone] | ≥ 50 | ≥ 50 | – | – | –
7 | CS(=O)(=O)Nc1cc(C(=O)c2ccncc2)cc(-c2cccc3[nH]ccc23)c1 [N-[3-(1H-Indol-4-yl)-5-(pyridine-4-carbonyl)-phenyl]-methanesulfonamide] | ≥ 50 | ≥ 50 | – | – | –
8 | CC(=O)Nc1cc(-c2ccc(Cl)nc2)cc(-c2cccc3[nH]ccc23)c1 [N-[3-(6-Chloro-pyridin-3-yl)-5-(1H-indol-4-yl)-phenyl]-acetamide] | – | – | ≥ 50 | – | –
9 | CCOc1ccc(-c2cc(NC(C)=O)cc(-c3cccc4[nH]ccc34)c2)cn1 [N-[3-(6-Ethoxy-pyridin-3-yl)-5-(1H-indol-4-yl)-phenyl]-acetamide] | – | – | < 50 | – | 100 to 1000
10 | O=COCCOCc1ncccc1Nc1cc(O)cc(-c2cccc3[nH]ccc23)c1 [Formic acid 2-{3-[3-hydroxy-5-(1H-indol-4-yl)-phenylamino]-pyridin-2-ylmethoxy}-ethyl ester] | ≥ 50 | < 50 | – | – | –
11 | CS(=O)(=O)Nc1cc(C(=O)c2ccnc(Cl)c2)cc(-c2cccc3[nH]ccc23)c1 [N-[3-(2-Chloro-pyridine-4-carbonyl)-5-(1H-indol-4-yl)-phenyl]-methanesulfonamide] | ≥ 50 | ≥ 50 | – | – | –
12 | Cc1cc(C(=O)c2cc(NS(C)(=O)=O)cc(-c3cccc4[nH]ccc34)c2)cc(Cl)n1 [N-[3-(2-Chloro-6-methyl-pyridine-4-carbonyl)-5-(1H-indol-4-yl)-phenyl]-methanesulfonamide] | ≥ 50 | ≥ 50 | – | – | –
13 | O=C(c1cccnc1)c1cc(O)cc(-n2ccc3cc(F)ccc32)c1 [[3-(5-Fluoro-indol-1-yl)-5-hydroxy-phenyl]-pyridin-3-yl-methanone] | ≥ 50 | ≥ 50 | – | – | –
14 | CC(=O)Nc1cc(C(=O)c2ccnc(Cl)c2)cc(-c2cccc3[nH]ccc23)c1 [N-[3-(2-Chloro-pyridine-4-carbonyl)-5-(1H-indol-4-yl)-phenyl]-acetamide] | ≥ 50 | ≥ 50 | – | – | –
15 | NC(=O)c1ccc(Nc2cc(O)cc(-c3cccc4[nH]ccc34)c2)cn1 [5-[3-Hydroxy-5-(1H-indol-4-yl)-phenylamino]-pyridine-2-carboxylic acid amide] | ≥ 50 | ≥ 50 | – | – | –
16 | NC(=O)c1cc(Nc2cccnc2)cc(-c2cccc3[nH]ccc23)c1 [3-(1H-Indol-4-yl)-5-(pyridin-3-ylamino)-benzamide] | ≥ 50 | ≥ 50 | – | – | –
17 | O=C(Nc1cc(C(=O)c2cccnc2)cc(-c2cccc3[nH]ccc23)c1)OCc1ccccc1 [[3-(1H-Indol-4-yl)-5-(pyridine-3-carbonyl)-phenyl]-carbamic acid benzyl ester] | ≥ 50 | < 50 | – | – | –

Row | Compound | activation at 1 µM [1] [%] | activation at 0.1 µM [2] [%] | activation at 0.1 µM [3] [%] | activation at 0.1 µM [4] [%] | IC50 ([3]; H522, footnotes * and ** of Table 4, read-out: IC50 (footnote mark in H522 G2/M Block)) [nM]
18 | COc1ccc(C(=O)c2cc(O)cc(-c3cccc4[nH]ccc34)c2)cn1 [[3-Hydroxy-5-(1H-Indol-4-yl)-phenyl]-(6-methoxy-pyridin-3-yl)-methanone] | ≥ 50 | ≥ 50 | – | – | –
19 | COc1cc(C(=O)c2cc(N)cc(-c3cccc4[nH]ccc34)c2)ccn1 [[3-Amino-5-(1H-indol-4-yl)-phenyl]-(2-methoxy-pyridin-4-yl)-methanone] | ≥ 50 | ≥ 50 | – | – | –
20 | CC(=O)Nc1cc(-c2cccc3[nH]ccc23)cc(S(=O)(=O)c2cccnc2)c1 [N-[3-(1H-Indol-4-yl)-5-(pyridine-3-sulfonyl)-phenyl]-acetamide] | ≥ 50 | < 50 | – | – | –
21 | Oc1cc(Nc2ccccc2)cc(-c2cccc3[nH]ccc23)c1 [3-(1H-Indol-4-yl)-5-phenylamino-phenol] | ≥ 50 | ≥ 50 | – | – | –
22 | CC(=O)Nc1cc(Br)cc(C(=O)c2cccnc2)c1 [N-[3-Bromo-5-(pyridine-3-carbonyl)-phenyl]-acetamide] | ≥ 50 | ≥ 50 | – | – | –
23 | NC(=O)c1cc(Nc2cnccn2)cc(-c2cccc3[nH]ccc23)c1 [3-(1H-Indol-4-yl)-5-(pyrazin-2-ylamino)-benzamide] | ≥ 50 | < 50 | – | – | –
24 | CC(=O)Nc1cc(-c2ccnc(Cl)c2)cc(-c2cccc3[nH]ccc23)c1 [N-[3-(2-Chloro-pyridin-4-yl)-5-(1H-indol-4-yl)-phenyl]-acetamide] | – | – | ≥ 50 | – | –
25 | N#Cc1cc2c(-c3cc(O)cc(Nc4cccnc4)c3)cccc2[nH]1 [4-[3-Hydroxy-5-(pyridin-3-ylamino)-phenyl]-1H-indole-2-carbonitrile] | < 50 | ≥ 50 | – | – | –
26 | CS(=O)(=O)Nc1cc(C(=O)c2cccnc2)cc(-c2cccc3[nH]c(C#N)cc23)c1 [N-[3-(2-Cyano-1H-indol-4-yl)-5-(pyridine-3-carbonyl)-phenyl]-methanesulfonamide] | ≥ 50 | ≥ 50 | – | – | –
27 | COC(=O)c1cc(Nc2cccnc2)cc(-c2cccc3[nH]ccc23)c1 [3-(1H-Indol-4-yl)-5-(pyridin-3-ylamino)-benzoic acid methyl ester] | ≥ 50 | ≥ 50 | – | – | –
28 | COC(=O)Nc1cc(Nc2cccnc2)cc(-c2cccc3[nH]ccc23)c1 [[3-(1H-Indol-4-yl)-5-(pyridin-3-ylamino)-phenyl]-carbamic acid methyl ester] | ≥ 50 | < 50 | – | – | –
29 | Oc1cc(Nc2cccnc2)cc(-c2cccc3c2OCO3)c1 [3-Benzo[1,3]dioxol-4-yl-5-(pyridin-3-ylamino)-phenol] | ≥ 50 | ≥ 50 | – | – | –
30 | CS(=O)(=O)Nc1cc(Nc2cccnc2)cc(-c2cccc3[nH]ccc23)c1 [N-[3-(1H-Indol-4-yl)-5-(pyridin-3-ylamino)-phenyl]-methanesulfonamide] | ≥ 50 | < 50 | – | – | –
31 | CC(=O)Nc1cc(SCc2cccnc2)cc(-c2cccc3[nH]ccc23)c1 [N-[3-(1H-Indol-4-yl)-5-(pyridin-3-ylmethylsulfanyl)-phenyl]-acetamide] | ≥ 50 | < 50 | – | – | –
32 | CC(=O)Nc1cc(C(=O)c2ccncc2)cc(-c2cccc3[nH]ccc23)c1 [N-[3-(1H-Indol-4-yl)-5-(pyridine-4-carbonyl)-phenyl]-acetamide] | ≥ 50 | ≥ 50 | – | – | –
33 | O=C(c1cccnc1)c1cc(-c2cccc3[nH]ccc23)cc(N2CCCC2=O)c1 [1-[3-(1H-Indol-4-yl)-5-(pyridine-3-carbonyl)-phenyl]-pyrrolidin-2-one] | ≥ 50 | < 50 | – | – | –
34 | CCC(=O)Nc1cc(C(=O)c2cccnc2)cc(-c2cccc3[nH]ccc23)c1 [N-[3-(1H-Indol-4-yl)-5-(pyridine-3-carbonyl)-phenyl]-propionamide] | ≥ 50 | < 50 | – | – | –
